# Experimental data: patent US8420651B2, “Substituted 1-alkylcinnolin-4(1H)-one derivatives, preparation thereof and therapeutic application of same” (Sanofi, priority 2009, dated 2013)
row,SMILES,melting point [°C]
1,O=c1c(-c2cccc(C(F)(F)F)c2)nn(CCCCC(F)(F)F)c2ccccc12,80 to 81
2,CCCCCn1nc(-c2cccc(C(F)(F)F)c2)c(=O)c2ccccc21,53 to 55
3,CCCCCn1nc(-c2cccc(C(F)(F)F)c2F)c(=O)c2cccc(OC)c21,82 to 84
4,COc1cccc2c(=O)c(-c3cccc(Cl)c3Cl)nn(CCCNS(C)(=O)=O)c12,66 to 68
5,CS(=O)(=O)NCCCn1nc(-c2cccc(Cl)c2Cl)c(=O)c2ccc(C(F)(F)F)cc21,80 to 83
6,CCCCCn1nc(-c2cccc(C(F)(F)F)c2F)c(=O)c2ccccc21,78 to 80
7,CC[S+]([O-])CCn1nc(-c2cccc(Cl)c2Cl)c(=O)c2cccc(OC)c21 (stereo not drawn),128 to 130
8,COc1cccc2c(=O)c(-c3cccc(Cl)c3Cl)nn(CCCN(C)S(C)(=O)=O)c12,179 to 181
9,CCSCCn1nc(-c2cccc(Cl)c2Cl)c(=O)c2ccc(Cl)cc21,75 to 77
10,CC[S+]([O-])CCn1nc(-c2cccc(Cl)c2Cl)c(=O)c2ccc(Cl)cc21 (stereo not drawn),75 to 77
11,CCS(=O)(=O)CCn1nc(-c2cccc(Cl)c2Cl)c(=O)c2ccc(Cl)cc21,76 to 79
12,CCCCCn1nc(-c2cccc(OC(F)(F)F)c2)c(=O)c2cccc(OC)c21,50 to 52
13,CCOCCn1nc(-c2cccc(Cl)c2Cl)c(=O)c2cccc(OC)c21,134 to 135
14,COc1cccc2c(=O)c(-c3cccc(Cl)c3Cl)nn(CCCNS(=O)(=O)N(C)C)c12,62 to 65
15,O=c1c(-c2cccc(C(F)(F)F)c2F)nn(CCCCF)c2ccccc12,91 to 93
16,CCCCCn1nc(-c2cccc(C(F)(F)F)c2Cl)c(=O)c2cccc(OC)c21,90 to 91
17,"O=c1c(-c2cccc(C(F)(F)F)c2F)nn(CCCCC(F)(F)F)c2ccccc12 [Compound 4, 3-[2-Fluoro-3-(trifluoromethyl)phenyl]-1-(5,5,5-trifluoropentyl)cinnolin-4(1H)-one]",118 to 120
18,"O=c1c(-c2cccc(C(F)(F)F)c2F)nn(CCCC(F)(F)F)c2ccccc12 [Compound 6, 3-[2-Fluoro-3-(trifluoromethyl)phenyl]-1-(4,4,4-trifluorobutyl)cinnolin-4(1H)-one]",96 to 99
19,"CSCCCn1nc(-c2cccc(C(F)(F)F)c2F)c(=O)c2ccccc21 [Compound 7, 3-(2-Fluoro-3-(trifluoromethyl)phenyl)-1-[3-(methylthio)propyl]cinnolin-4(1H)-one]",80 to 83
20,"COc1ccc(F)cc1-c1nn(CCCC(F)(F)F)c2ccccc2c1=O [Compound 16, 3-(5-Fluoro-2-methoxyphenyl)-1-(4,4,4-trifluorobutyl)cinnolin-4(1H)-one]",118 to 121
21,"O=c1c(-c2cccc(C(F)(F)F)c2Cl)nn(CCCCC(F)(F)F)c2cc(Cl)ccc12 [Compound 17, 7 Chloro-3-[2-chloro-3-(trifluoromethyl)phenyl]-1-(5,5,5-trifluoropentyl)-cinnolin-4(1H)-one]",137 to 138
22,"COc1cccc2c(=O)c(-c3cccc(C(F)(F)F)c3F)nn(CCCNS(C)(=O)=O)c12 [Compound 18, N-(3-[3-[2-Fluoro-3-(trifluoromethyl)phenyl]-8-methoxy-4-oxocinnolin-1(4H)-yl]propyl)methanesulphonamide]",62 to 64
23,"COc1cccc2c(=O)c(-c3cccc(C(F)(F)F)c3Cl)nn(CCCNS(C)(=O)=O)c12 [Compound 19, N-[3-[3-[2-Chloro-3-(trifluoromethyl)phenyl]-8-methoxy-4-oxocinnolin-1(4H)-yl]propyl]methanesulphonamide]",95 to 98
24,"COc1cccc2c(=O)c(-c3cccc(F)c3C(F)(F)F)nn(CCCNS(C)(=O)=O)c12 [Compound 20, N-[3-[3-[3-Fluoro-2-(trifluoromethyl)phenyl]-8-methoxy-4-oxocinnolin-1(4H)-yl]propyl]methanesulphonamide]",66 to 68
25,"COc1cccc2c(=O)c(-c3cccc(C(F)(F)F)c3F)nn(CCCS(C)(=O)=O)c12 [Compound 24, 3-[2-Fluoro-3-(trifluoromethyl)phenyl]-1-(3-(methanesulphonyl)propyl)-8-methoxy-1H-cinnolin-4-one]",138 to 139
26,"CS(=O)(=O)NCCCn1nc(-c2cccc(C(F)(F)F)c2F)c(=O)c2ccc(C(F)(F)F)cc21 [Compound 25, N-{3-[3-[2-Fluoro-3-(trifluoromethyl)phenyl]-4-oxo-7-trifluoromethyl-4H-cinnolin-1-yl]propyl}methanesulphonamide]",128 to 130

# Continued, values first:
row,melting point [°C],SMILES
1,149 to 152,"CS(=O)(=O)NCCCn1nc(-c2cccc(C(F)(F)F)c2F)c(=O)c2ccccc21 [Compound 27, N-{3-[3-[2-Fluoro-3-(trifluoromethyl)phenyl]-4-oxo-4H-cinnolin-1-yl]-propyl}methanesulphonamide]"
2,73 to 75,"CCSCCn1nc(-c2cccc(C(F)(F)F)c2F)c(=O)c2cccc(OC)c21 [Compound 29, 1-[2-(Ethylthio)ethyl]-3-[2-fluoro-3-(trifluoromethyl)phenyl]-8-methoxycinnolin-4(1H)-one]"
3,99 to 101,"CC[S+]([O-])CCn1nc(-c2cccc(C(F)(F)F)c2F)c(=O)c2cccc(OC)c21 (stereo not drawn) [Compound 30, 1-[2-(Ethylsulphinyl)ethyl]-3-[2-fluoro-3-(trifluoromethyl)phenyl]-8-methoxycinnolin-4(1H)-one]"
4,138 to 139,"CCS(=O)(=O)CCn1nc(-c2cccc(C(F)(F)F)c2F)c(=O)c2cccc(OC)c21 [Compound 31, 1-[2-(Ethylsulphonyl)ethyl]-3-[2-fluoro-3-(trifluoromethyl)phenyl]-8-methoxycinnolin-4(1H)-one]"
5,98 to 101,"COc1cccc2c(=O)c(-c3cccc(OC(F)(F)F)c3)nn(CCCNS(C)(=O)=O)c12 [Compound 35, N-(3-{8-Methoxy-4-oxo-3-[3-(trifluoromethoxy)phenyl]cinnolin-1(4H)-yl}propyl)methanesulphonamide]"
6,127 to 130,"COc1cccc2c(=O)c(-c3cccc(C(F)(F)F)c3F)nn(CCCNS(=O)(=O)C(F)(F)F)c12 [Compound 36, 1,1,1-Trifluoro-N-(3-{3-[2-fluoro-3-(trifluoromethyl)phenyl]-8-methoxy-4-oxocinnolin-1(4H)-yl}propyl)methanesulphonamide]"
7,51 to 53,"COc1cccc2c(=O)c(-c3cccc(C(F)(F)F)c3F)nn(CCCNC(=O)C(F)(F)F)c12 [Compound 37, 2,2,2-Trifluoro-N-(3-{3-[2-fluoro-3-(trifluoromethyl)phenyl]-8-methoxy-4-oxocinnolin-1(4H)-yl}propyl)acetamide]"
8,155 to 157,"CS(=O)(=O)NCCCn1nc(-c2cccc(C(F)(F)F)c2F)c(=O)c2ccc(Cl)cc21 [Compound 38, N-(3-{7-Chloro-3-[2-fluoro-3-(trifluoromethyl)phenyl]-4-oxocinnolin-1(4H)-yl}propyl)methanesulphonamide]"
9,117 to 119,"CCSCCn1nc(-c2cccc(C(F)(F)F)c2F)c(=O)c2ccc(Cl)cc21 [Compound 41, 7-Chloro-1-[2-(ethylthio)ethyl]-3-[2-fluoro-3-(trifluoromethyl)phenyl]cinnolin-4(1H)-one]"
10,66 to 68,"CCSCCn1nc(-c2cccc(OC(F)(F)F)c2)c(=O)c2ccc(Cl)cc21 [Compound 46, 7-Chloro-1-[2-(ethylthio)ethyl]-3-[3-(trifluoromethoxy)phenyl]cinnolin-4(1H)-one]"
11,86 to 89,"CCSCCn1nc(-c2cccc(OC(F)(F)F)c2)c(=O)c2cccc(OC)c21 [Compound 49, 1-[2-(Ethylthio)ethyl]-8-methoxy-3-[3-(trifluoromethoxy)phenyl]cinnolin-4(1H)-one]"
12,130 to 132,"CCS(=O)(=O)CCn1nc(-c2cccc(OC(F)(F)F)c2)c(=O)c2cccc(OC)c21 [Compound 50, 1-[2-(Ethylsulphonyl)ethyl]-8-methoxy-3-[3-(trifluoromethoxy)phenyl]cinnolin-4(1H)-one]"
13,145 to 146,"COc1cccc2c(=O)c(-c3cccc(C(F)(F)F)c3F)nn(CCNS(C)(=O)=O)c12 [Compound 55, N-(2-{3-[2-Fluoro-3-(trifluoromethyl)phenyl]-8-methoxy-4-oxocinnolin-1(4H)-yl}ethyl)methanesulphonamide]"
